Data set [1] relates to rats. As to conditions: rat, in vivo.
In data set [2] the test system is rats. As to conditions: rat, in vivo. This is another data set of the same source.

As to `CC(C)C[C@H](CN)CC(=O)O` [Pregabalin], the sedative clinical symptoms result with rats [1] is given as “dose-dependant increase in the level of sedative clinical symptoms”. Moreover, in the data set with rats [2], the “effect on left and right paw withdrawal latencies compared to vehicle control” value is “failed to have a significant effect”.

Source of the values: US9206190B2 (priority 2008, dated 2015).
